Measurements from patent US20160303127A1, “COMBINATION THERAPY WITH C-MET AND EGFR ANTAGONISTS” (Genentech, Inc., priority 2008, published 2016).
Where “and” joins values, the source holds several entries; their conditions need not be identical. Equal entries are not always repeated.

B1: MetMAb: Anti-c-met monovalent monoclonal antibody MetMAb (rhuOA5D5v2) (WO2007/063816) (antibody, chains of the INN, looked up, V domains shown)
VH: EVQLVESGGGLVQPGGSLRLSCAASGYTFTSYWLHWVRQAPGKGLEWVGMIDPSNSDTRFNPNFKDRFTISADTSKNTAYLQMNSLRAEDTAVYYCATYRSYVTPLDYWGQGTLVTVSS
VL: DIQMTQSPSSLSASVGDRVTITCKSSQSLLYTSSQKNYLAWYQQKPGKAPKLLIYWASTRESGVPSRFSGSGSGTDFTLTISSLQPEDFATYYCQQYYAYPWTFGQGTKVEIK
modifications: one-armed

Tests used:
EBC-1 shMet-4.5 tumors = test: Combination efficacy of erlotinib with c-met knockdown (Dox) in the EBC-1 shMet-4.5 NSCLC xenograft model; assay type: in vivo, nude mice (nu/nu); conditions: EBC-1 shMet-4.5 xenograft
Method: Test material. Erlotinib (Tarceva™) was provided by OSI Pharmaceuticals to the Formulations Department at Genentech and was weighed out along with a sufficient amount of vehicle (methylcellulose tween (MCT)). Materials were stored in a refrigerator set to maintain a temperature range of 4° C. to 8° C. Anti-c-met monovalent monoclonal antibody MetMAb (rhuOA5D5v2) (WO2007/063816) was provided by the Antibody Engineering Department at Genentech, Inc., in a clear liquid form. The EBC-1 cell line was obtained from Japanese Collection of Research Bioresources (JCRB). Species. Forty nude mice (nu/nu) were obtained from Charles River Laboratories (CRL) and were acclimatized for at least one week prior to being put on study. Animals were housed in ventilated caging systems in rooms with filters supplying High-Efficiency Particulate Air (HEPA). Only animals that appeared to be healthy and were free of obvious abnormalities were used for the study. Study design. EBC-1 cells were cultured in growth media that consisted of RPMI 1640 media (Invitrogen), 2 mM L-glutamine, and 10% fetal bovine serum. To prepare cells for inoculation into mice, cells were trypsinized, washed with ten milliliters of sterile 1× phosphate buffered saline (PBS). A subset of cells was counted by trypan blue exclusion and the remainder of cells was resuspended in 100 μl of sterile 1× PBS to a concentration of 5×10^7 cells per milliliter. Mice were inoculated subcutaneously in the right sub-scapular region with 5×10^6 EBC-1 cells. […] Mice in Group 1 (control group) were treated with 100 μL vehicle control, methylcellulose tween (MCT), every day (QD) via oral gavage (PO) and were switched to drinking water containing 5% sucrose. […] Dox and sucrose water was changed every 2-3 days. Erlotinib and MCT were dosed for 14 days, stopped for 6 days and then resumed for the remainder of the study (20 days). […] All studies and handling of mice complied with the Institutional Animal Care and Use Committee (IACUC) guidelines. [table] Tumor and Body Weight Measurement. […] Fowler Company, Inc.; Newton, Mass.). The following formula was used with Excel v11.2 (Microsoft Corporation; Redmond, Wash.) to calculate tumor volume: […] Efficacy Data Analysis. Tumor inhibition was plotted using KaleidaGraph 3.6 (Synergy Software; Reading, Pa.). Percent growth inhibition (% Inh) at Day 17 was calculated as follows: […] Tumor incidence (TI) was determined by the number of measurable tumors in each group at Day 17. […] Mean tumor volume and standard error of the mean (SEM) were calculated using JMP software, version 5.1.2 (SAS Institute; Cary, N.C.). Data analysis and generation of p-values using either Student's t-test or the Dunnett's t-test was also done using JMP software, version 5.1.2. […] Mice were then grouped into four treatment arms; […] Vehicles, Group 2: Doxycycline (Dox), Group 3: erlotinib (100 mg/kg), and Group 4: erlotinib+Dox (See Table 6).

EGFR = target: T1, EGFR (Homo sapiens, UniProt P00533); test: EGFR phosphorylation in NCI-H596 hu-HGF-Tg-SCID xenograft tumors (IP/immunoblot); assay type: in vivo, mouse xenograft; conditions: MetMAb 30 mg/kg 24 h, erlotinib 150 mg/kg 6 h prior to harvest, average of 5 animals
T1 construct: endogenous in cells; host or cells: NCI-H596 (human NSCLC) cells grown as xenograft tumours in hu-HGF-Tg-SCID mice; tumour lysate, IP with MI-12-1 and immunoblot
Method: Tumors were allowed to grow to 200-300 mm^3 prior to treatment. Dosing was performed as described in Table 8. Briefly, MetMAb (30 mg/kg) or MetMAb buffer was dosed at time zero hours (0 hr) and methylcellulose tween vehicle (MCT) or erlotinib (150 mg/kg) was dosed at time 18 hours (18 hr). Mice were euthanized and tumors and plasma collected at time 24 hours (24 hr). Tumors were snap frozen in liquid nitrogen and then kept at −70° C. until they were processed for immunoprecipitation and immunoblotting.
Immunoprecipitations and Immunoblotting: To process tumors for protein analysis, tumors were first homogenized using a glass dounce with lysis buffer (Cell Signaling Technology, Inc., Danvers, Mass.), supplemented with 1 mM PMSF, additional protease inhibitor cocktail, and phosphatase inhibitor cocktail I and II (Sigma, Inc., St. Louis, Mo.). Lysates were incubated on ice for one hour and then centrifuged at 14,000×g for five minutes and supernatants collected. Protein concentrations were determined using the BCA™ Protein Assay Kit (Pierce, Inc., Rockford, Ill.) and samples were immunoblotted. […] Samples were then analyzed by SDS-PAGE and immunoblotting. […] Immunoblots were imaged and phospho-protein levels were quantified and normalized to total protein levels (e.g. pEGFR over total EGFR) using an Odyssey imager (LI-COR Biosciences, Lincoln, Nebr.). […]

NCI-H596 cell line = NCI-H596 cell line in vitro; cited from earlier work
[1] = 10 mice per group, any day during the study

Molecule	number of complete responses (CR; tumor regression of 100%) (EBC-1 shMet-4.5 tumors; [1])	number of partial responses (PR; tumor regression >50% but <100% of starting tumor volume) (EBC-1 shMet-4.5 tumors; [1])	reduction in tumor growth compared to the vehicle control (tumor inhibition) (EBC-1 shMet-4.5 tumors; nude mice, day 19, erlotinib 100 mg/kg PO QD, Dox in drinking water)	pEGFR/total EGFR (phosphorylation of EGFR) (EGFR)	HGF-driven proliferation (NCI-H596 cell line)
C#Cc1cccc(Nc2ncnc3cc(OCCOC)c(OCCOC)cc23)c1 [erlotinib, N-(3-ethynylphenyl)-6,7-bis(2-methoxyethoxy)-4-quinazolinamine]	no	no	−6%	–	–
B1	–	–	–	62% (+/−21.6%) % of vehicle control and 62 (±21.6) % of vehicle control	blocks HGF-driven proliferation
